Experimental data taken from US10238713B2, “Cyclic tetrapeptides and therapeutic applications thereof” (LODZ UNIVERSITY OF TECHNOLOGY, priority 2010, dated 2019).
Non-standard residues stand in square brackets, D forms with d. Residues, ends and D or L forms follow the SMILES beside them. d(β3hF) = N[C@@H](CC(=O)O)Cc1ccccc1; β3hF = N[C@H](CC(=O)O)Cc1ccccc1

Test system: PHA-induced proliferation of human peripheral blood mononuclear cells (PBMC)
Assay: Proliferative response of PBMC to PHA (MTT)
Type: cell-based
Details: 1 μg/ml, four-day incubation; FIGS. 9A-9B
Protocol: PBMC were isolated by centrifugation on Ficoll-uropoline gradient (density 1.077 g/ml) (Lymphoprep; PAA Laboratories), at 800×g for 20 min at 4° C. The interphase cells, consisting of lymphocytes (20%) and monocytes (80%) were then washed three times with Hanks' medium and re-suspended in the culture medium at density of 2×10^6 cells/ml.
The isolated PBMC were distributed into 96-well flat-bottom plates in 100 μl aliquots (2×10^5 cells/well). PHA was used at concentration of 5 μg/ml. The compounds were tested at concentrations of 1, 10 and 100 μg/ml. DMSO at appropriate dilutions served as control. After a four-day incubation in a cell culture incubator, the proliferative response of cells was determined by the colorimetric MTT method (Hansen et al., J. Immunol. Methods, 1989, pp. 203-210). The data are presented as a mean OD value from quadriplicate wells ±standard error (SE). The cultures “Control (−)” contained no mitogen (PHA). The cultures “Control (PHA)” contained PHA but not cyclic tetrapeptides.
Briefly, 25 μl of MTT (5 mg/ml) stock solution was added per well at the end of cell incubation and the plates were incubated for 3 h in a cell culture incubator. Then, 100 μl of the extraction buffer (20% SDS with 50% DMF, pH 4.7) was added. After additional overnight incubation, the optical density was measured at 550 nm (Dynatech 5000).

SMILES | PHA-induced PBMC proliferation, P vs DMSO at appropriate dilution
O=C1C[C@H](Cc2ccccc2)NC(=O)[C@@H]2CCCN2C(=O)[C@@H]2CCCN2C(=O)[C@@H](Cc2ccccc2)N1 [I-D] (cyclo(PP[β3hF][dF])) | 1.0000
O=C1C[C@H](Cc2ccccc2)NC(=O)[C@H]2CCCN2C(=O)[C@H]2CCCN2C(=O)[C@@H](Cc2ccccc2)N1 [I-E] (cyclo([dF][dP][dP][β3hF])) | 1.0000
O=C1C[C@H](Cc2ccccc2)NC(=O)[C@@H]2CCCN2C(=O)[C@H]2CCCN2C(=O)[C@H](Cc2ccccc2)N1 [I-F] (cyclo([dP]P[β3hF]F)) | 1.0000
O=C1C[C@@H](Cc2ccccc2)NC(=O)[C@H]2CCCN2C(=O)[C@H]2CCCN2C(=O)[C@@H](Cc2ccccc2)N1 [I-J] (cyclo([d(β3hF)][dF][dP][dP])) | 1.0000
O=C1C[C@H](Cc2ccccc2)NC(=O)[C@H]2CCCN2C(=O)[C@@H]2CCCN2C(=O)[C@H](Cc2ccccc2)N1 [I-H] (cyclo(FP[dP][β3hF])) | 0.5198
O=C1C[C@@H](Cc2ccccc2)NC(=O)[C@@H]2CCCN2C(=O)[C@@H]2CCCN2C(=O)[C@H](Cc2ccccc2)N1 [I-G] (cyclo(FPP[d(β3hF)])) | 0.9047

Same assay, conditions: 10 μg/ml, four-day incubation; FIGS. 9A-9F

SMILES | PHA-induced PBMC proliferation, P vs DMSO at appropriate dilution
O=C1C[C@H](Cc2ccccc2)NC(=O)[C@@H]2CCCN2C(=O)[C@@H]2CCCN2C(=O)[C@@H](Cc2ccccc2)N1 [I-D] (cyclo(PP[β3hF][dF])) | 0.9999
O=C1C[C@H](Cc2ccccc2)NC(=O)[C@H]2CCCN2C(=O)[C@H]2CCCN2C(=O)[C@@H](Cc2ccccc2)N1 [I-E] (cyclo([dF][dP][dP][β3hF])) | 1.0000
O=C1C[C@H](Cc2ccccc2)NC(=O)[C@@H]2CCCN2C(=O)[C@H]2CCCN2C(=O)[C@H](Cc2ccccc2)N1 [I-F] (cyclo([dP]P[β3hF]F)) | 0.9930
O=C1C[C@@H](Cc2ccccc2)NC(=O)[C@H]2CCCN2C(=O)[C@H]2CCCN2C(=O)[C@@H](Cc2ccccc2)N1 [I-J] (cyclo([d(β3hF)][dF][dP][dP])) | 1.0000
O=C1C[C@H](Cc2ccccc2)NC(=O)[C@H]2CCCN2C(=O)[C@@H]2CCCN2C(=O)[C@H](Cc2ccccc2)N1 [I-H] (cyclo(FP[dP][β3hF])) | 1.0000
O=C1C[C@@H](Cc2ccccc2)NC(=O)[C@@H]2CCCN2C(=O)[C@@H]2CCCN2C(=O)[C@H](Cc2ccccc2)N1 [I-G] (cyclo(FPP[d(β3hF)])) | 0.4297

Same assay, conditions: 100 μg/ml, four-day incubation; FIGS. 9A-9F

SMILES | PHA-induced PBMC proliferation, P vs DMSO at appropriate dilution
O=C1C[C@H](Cc2ccccc2)NC(=O)[C@@H]2CCCN2C(=O)[C@@H]2CCCN2C(=O)[C@@H](Cc2ccccc2)N1 [I-D] (cyclo(PP[β3hF][dF])) | 1.0000
O=C1C[C@H](Cc2ccccc2)NC(=O)[C@H]2CCCN2C(=O)[C@H]2CCCN2C(=O)[C@@H](Cc2ccccc2)N1 [I-E] (cyclo([dF][dP][dP][β3hF])) | 0.9982
O=C1C[C@H](Cc2ccccc2)NC(=O)[C@@H]2CCCN2C(=O)[C@H]2CCCN2C(=O)[C@H](Cc2ccccc2)N1 [I-F] (cyclo([dP]P[β3hF]F)) | 0.0001
O=C1C[C@@H](Cc2ccccc2)NC(=O)[C@H]2CCCN2C(=O)[C@H]2CCCN2C(=O)[C@@H](Cc2ccccc2)N1 [I-J] (cyclo([d(β3hF)][dF][dP][dP])) | 0.1257
O=C1C[C@H](Cc2ccccc2)NC(=O)[C@H]2CCCN2C(=O)[C@@H]2CCCN2C(=O)[C@H](Cc2ccccc2)N1 [I-H] (cyclo(FP[dP][β3hF])) | 0.2037
O=C1C[C@@H](Cc2ccccc2)NC(=O)[C@@H]2CCCN2C(=O)[C@@H]2CCCN2C(=O)[C@H](Cc2ccccc2)N1 [I-G] (cyclo(FPP[d(β3hF)])) | 0.9970

Test system: LPS-induced TNF-α production
Assay: not given
Type: cell-based
Details: Table 2A, compound 1 μg/ml
Protocol: Human whole blood was diluted 10-fold with RPMI-1640 medium and distributed to 24-well culture plates in 1 ml aliquots. LPS was added to the culture at a concentration of 1 μg/ml. The studied peptides were used at concentrations of 1, 10 and 100 μg/ml. After overnight incubation, the supernatants were harvested and frozen at −20° C. until cytokine determination. TNF-α activity was determined using a bioassay. Briefly, WEHI 164.13 cells (ATCC CRL 1751) were seeded at a concentration of 2×10^4 cells/well in quadriplicate. Increasing dilutions of the assayed supernatant were mixed with the target cells in the presence of actinomycin D (1 μg/ml). After 20 h of incubation, MTT was added into the wells, and the cultures were incubated for an additional 4 h. […] The detection limit of the assay was about 2.5 pg/ml. One unit of TNF-α activity was defined as an inverse of supernatant dilution where 50% cell death took place. The cultures labeled “Control (−)” contained no LPS. The cultures labeled “Control (LPS)” contained LPS and none of the studied compounds. Statistical analysis was not applied since the data derive from single cultures (wells).

SMILES | % inhibition vs. DMSO [%]
O=C1C[C@H](Cc2ccccc2)NC(=O)[C@@H]2CCCN2C(=O)[C@@H]2CCCN2C(=O)[C@@H](Cc2ccccc2)N1 [I-D] (cyclo(PP[β3hF][dF])) | 14.1
O=C1C[C@H](Cc2ccccc2)NC(=O)[C@H]2CCCN2C(=O)[C@H]2CCCN2C(=O)[C@@H](Cc2ccccc2)N1 [I-E] (cyclo([dF][dP][dP][β3hF])) | 19.0
O=C1C[C@H](Cc2ccccc2)NC(=O)[C@@H]2CCCN2C(=O)[C@H]2CCCN2C(=O)[C@H](Cc2ccccc2)N1 [I-F] (cyclo([dP]P[β3hF]F)) | 25.9
O=C1C[C@@H](Cc2ccccc2)NC(=O)[C@H]2CCCN2C(=O)[C@H]2CCCN2C(=O)[C@@H](Cc2ccccc2)N1 [I-J] (cyclo([d(β3hF)][dF][dP][dP])) | 1.6
O=C1C[C@H](Cc2ccccc2)NC(=O)[C@H]2CCCN2C(=O)[C@@H]2CCCN2C(=O)[C@H](Cc2ccccc2)N1 [I-H] (cyclo(FP[dP][β3hF])) | 12.8
O=C1C[C@@H](Cc2ccccc2)NC(=O)[C@@H]2CCCN2C(=O)[C@@H]2CCCN2C(=O)[C@H](Cc2ccccc2)N1 [I-G] (cyclo(FPP[d(β3hF)])) | 33.1

Same assay, conditions: Table 2A, compound 1 μg/ml, LPS 1 μg/ml, overnight

SMILES | TNF-α [pg/mL]
O=C1C[C@H](Cc2ccccc2)NC(=O)[C@@H]2CCCN2C(=O)[C@@H]2CCCN2C(=O)[C@@H](Cc2ccccc2)N1 [I-D] (cyclo(PP[β3hF][dF])) | 7016
O=C1C[C@H](Cc2ccccc2)NC(=O)[C@H]2CCCN2C(=O)[C@H]2CCCN2C(=O)[C@@H](Cc2ccccc2)N1 [I-E] (cyclo([dF][dP][dP][β3hF])) | 6614
O=C1C[C@H](Cc2ccccc2)NC(=O)[C@@H]2CCCN2C(=O)[C@H]2CCCN2C(=O)[C@H](Cc2ccccc2)N1 [I-F] (cyclo([dP]P[β3hF]F)) | 6052
O=C1C[C@@H](Cc2ccccc2)NC(=O)[C@H]2CCCN2C(=O)[C@H]2CCCN2C(=O)[C@@H](Cc2ccccc2)N1 [I-J] (cyclo([d(β3hF)][dF][dP][dP])) | 8033
O=C1C[C@H](Cc2ccccc2)NC(=O)[C@H]2CCCN2C(=O)[C@@H]2CCCN2C(=O)[C@H](Cc2ccccc2)N1 [I-H] (cyclo(FP[dP][β3hF])) | 7123
O=C1C[C@@H](Cc2ccccc2)NC(=O)[C@@H]2CCCN2C(=O)[C@@H]2CCCN2C(=O)[C@H](Cc2ccccc2)N1 [I-G] (cyclo(FPP[d(β3hF)])) | 5463

Same assay, conditions: Table 2A, compound 10 μg/ml

SMILES | % inhibition vs. DMSO [%] | TNF-α [pg/mL]
O=C1C[C@H](Cc2ccccc2)NC(=O)[C@@H]2CCCN2C(=O)[C@@H]2CCCN2C(=O)[C@@H](Cc2ccccc2)N1 [I-D] (cyclo(PP[β3hF][dF])) | 28.1 | 5757
O=C1C[C@H](Cc2ccccc2)NC(=O)[C@H]2CCCN2C(=O)[C@H]2CCCN2C(=O)[C@@H](Cc2ccccc2)N1 [I-E] (cyclo([dF][dP][dP][β3hF])) | 20.7 | 6346
O=C1C[C@H](Cc2ccccc2)NC(=O)[C@@H]2CCCN2C(=O)[C@H]2CCCN2C(=O)[C@H](Cc2ccccc2)N1 [I-F] (cyclo([dP]P[β3hF]F)) | 34.8 | 5222
O=C1C[C@@H](Cc2ccccc2)NC(=O)[C@H]2CCCN2C(=O)[C@H]2CCCN2C(=O)[C@@H](Cc2ccccc2)N1 [I-J] (cyclo([d(β3hF)][dF][dP][dP])) | 4.4 | 7658
O=C1C[C@H](Cc2ccccc2)NC(=O)[C@H]2CCCN2C(=O)[C@@H]2CCCN2C(=O)[C@H](Cc2ccccc2)N1 [I-H] (cyclo(FP[dP][β3hF])) | 10.0 | 7203
O=C1C[C@@H](Cc2ccccc2)NC(=O)[C@@H]2CCCN2C(=O)[C@@H]2CCCN2C(=O)[C@H](Cc2ccccc2)N1 [I-G] (cyclo(FPP[d(β3hF)])) | 33.8 | 5302

Same assay, conditions: Table 2A, compound 100 μg/ml

SMILES | % inhibition vs. DMSO [%]
O=C1C[C@H](Cc2ccccc2)NC(=O)[C@@H]2CCCN2C(=O)[C@@H]2CCCN2C(=O)[C@@H](Cc2ccccc2)N1 [I-D] (cyclo(PP[β3hF][dF])) | 28.1
O=C1C[C@H](Cc2ccccc2)NC(=O)[C@H]2CCCN2C(=O)[C@H]2CCCN2C(=O)[C@@H](Cc2ccccc2)N1 [I-E] (cyclo([dF][dP][dP][β3hF])) | 10.2
O=C1C[C@H](Cc2ccccc2)NC(=O)[C@@H]2CCCN2C(=O)[C@H]2CCCN2C(=O)[C@H](Cc2ccccc2)N1 [I-F] (cyclo([dP]P[β3hF]F)) | 61.2
O=C1C[C@@H](Cc2ccccc2)NC(=O)[C@H]2CCCN2C(=O)[C@H]2CCCN2C(=O)[C@@H](Cc2ccccc2)N1 [I-J] (cyclo([d(β3hF)][dF][dP][dP])) | 0.0
O=C1C[C@H](Cc2ccccc2)NC(=O)[C@H]2CCCN2C(=O)[C@@H]2CCCN2C(=O)[C@H](Cc2ccccc2)N1 [I-H] (cyclo(FP[dP][β3hF])) | 43.9
O=C1C[C@@H](Cc2ccccc2)NC(=O)[C@@H]2CCCN2C(=O)[C@@H]2CCCN2C(=O)[C@H](Cc2ccccc2)N1 [I-G] (cyclo(FPP[d(β3hF)])) | 70.4

Same assay, conditions: Table 2A, compound 100 μg/ml (DMSO only: 196)

SMILES | TNF-α [pg/mL]
O=C1C[C@H](Cc2ccccc2)NC(=O)[C@@H]2CCCN2C(=O)[C@@H]2CCCN2C(=O)[C@@H](Cc2ccccc2)N1 [I-D] (cyclo(PP[β3hF][dF])) | 141
O=C1C[C@H](Cc2ccccc2)NC(=O)[C@H]2CCCN2C(=O)[C@H]2CCCN2C(=O)[C@@H](Cc2ccccc2)N1 [I-E] (cyclo([dF][dP][dP][β3hF])) | 176
O=C1C[C@H](Cc2ccccc2)NC(=O)[C@@H]2CCCN2C(=O)[C@H]2CCCN2C(=O)[C@H](Cc2ccccc2)N1 [I-F] (cyclo([dP]P[β3hF]F)) | 76
O=C1C[C@@H](Cc2ccccc2)NC(=O)[C@H]2CCCN2C(=O)[C@H]2CCCN2C(=O)[C@@H](Cc2ccccc2)N1 [I-J] (cyclo([d(β3hF)][dF][dP][dP])) | 203
O=C1C[C@H](Cc2ccccc2)NC(=O)[C@H]2CCCN2C(=O)[C@@H]2CCCN2C(=O)[C@H](Cc2ccccc2)N1 [I-H] (cyclo(FP[dP][β3hF])) | 110
O=C1C[C@@H](Cc2ccccc2)NC(=O)[C@@H]2CCCN2C(=O)[C@@H]2CCCN2C(=O)[C@H](Cc2ccccc2)N1 [I-G] (cyclo(FPP[d(β3hF)])) | 58
